The test system of this series is HEK293T cells. The following applies: human.

Bounds are passed on as bounds.

With `COc1ncc(-c2ccc3nc(N)n(-c4ccc(N5CCOCC5)cc4)c3c2)cc1S(=O)(=O)Nc1ccccc1F` [A1, 5-(2-amino-1-(4-(4-morpholinyl)phenyl)-1H-benzimidazol-6-yl)-N-(2-fluorophenyl)-2-methoxy-3-pyridinesulfonamide], the “Concentration that killed most of the cells (MTT)” value is on record as ≥ 250 nM.

The record behind these values is patent US11766420B2 (priority 2015, dated 2023).
